Experimental data from patent publication US11192920B2, “Peptides for binding to CD44v6 and use thereof” (KYUNGPOOK NATIONAL UNIVERSITY INDUSTRY-ACADEMIC COOPERATION …, priority 2017, dated 2021).

How the values were obtained:
MDA-MB-231 tumor model = test: MDA-MB-231 lung metastasis model; type: in vivo, mice; conditions: peptide i.v. 14.2 mg/g 3 times a week for 3 weeks; crizotinib oral 25 mg/kg; vs saline and control peptide
Description: (§1) For animal models, 6-week-old to 8-week-old Balb/c female mice were purchased from Orient Bio. Mice were cared for and maintained in conformance with the Guidelines of the Institutional Animal Care and Use Committee (IACUC) of Kyungpook National University. Tumors were prepared by injecting 1×10^6 MDA-MB-231 cells via tail vein to develop lung metastatic model in Balb/c female nude mice and 1×10^6 4T1 cells into the lower left mammary fat pad of Balb/c wild type female mice.
(§2) Tumor-bearing mice were subjected to randomization and grouping when the size of the tumors reached approximately 100 mm^3. Each peptide was intravenously injected via the tail vein of mice ([…] of body weight, 3 times a week for 3 weeks). Crizotinib was given through orally (25 mg/kg of body weight, three times a week for 3 weeks) based on a previous study. Tumor size was measured using a digital caliper, and tumor volume was calculated using the following formula: Volume=(L×W×H)/2 (L: length, longest dimension, W: width, shorter dimension, parallel to the mouse body, and H: height, perpendicular to the length and width). Mice were checked for tumor ulceration. At the end of the treatment, the mice were sacrificed, and the lung and liver were isolated and checked for metastatic tumor masses.
MDA-MB231-luc cells (1×10^6 in 0.1 ml PBS) were injected into the lateral tail vein of female nude mice. The mice were then segregated into groups (n=10 per group) based on initial IVIS image. Starting from day 0, mice were administered CD44v6 peptides by intravenously injected via the tail vein of mice ([…] of body weight, 3 times a week for 3 weeks). After the last IVIS imaging, mice were euthanized and lung tissues were removed from each mouse for metastatic tumor masses immunohistochemical analyses.
(§3) At the end of the treatment, mouse blood was collected and hematological factors were analyzed by DGMIF (Daegu-Gyeongbuk Medical Innovation Foundation) (Daegu, Korea).
CD44v6 Peptides was stable without degradation for at least 24 hours in the presence of serum.

4T1 tumor model = test: Anti-tumor therapy in 4T1 tumor model; type: in vivo, mice; conditions: for tumor and metastatic growth (bioluminescence imaging): peptide i.v. 14.2 mg/kg thrice a week, crizotinib oral 25 mg/kg thrice a week, vs saline
Description: as §1, §2, §3
In vivo anti-tumor activity was further evaluated in 4T1 orthotopic mice models. In relevant with the biodistribution and pharmacokinetic results, in vivo therapy was started by administrating 14.2 mg/kg thrice a week via intravenous injection of CD44v6 peptides and 25 mg/kg crizotinib thrice a week orally.

[1] = test system: CD44 variant 6 expressing cells MDA-MB231, HELA, 4T1 and PANC-1; conditions: CD44v6 expressing cells
Description: (§4) After complete adhesion, the cell culture medium was replaced with fresh medium containing FITC labeled peptides (10 μM) and then the cells were incubated at 37° C. for 1 h and cells were washed with PBS for 3-5 min (thrice) and stained with CD44v6 antibody (Santa cruz), followed by Alexa 594-labeled goat anti-mouse IgG secondary antibody.
(§5) To screen CD44v6-binding peptides, the present inventors first prepared HEK-293 cells transfected with CD44v6-GFP plasmid by transient transfection. […] Twenty phage clones were randomly picked from the third, fourth, and fifth rounds and the peptide-coding DNA inserts of the phage clones were sequenced.

MCF-7 = conditions: CD44v6 non-expressing cells
Description: as §4, §5

[2] = test system: CD44v6 silenced MDA-MB-231 cells; conditions: for binding of FITC labelled peptide after silencing of CD44v6 gene (flow cytometry): MDA-MB-231, CD44v6 siRNA; for binding of FITC labelled peptide after siRNA treatment (immunofluorescence staining): MDA-MB-231, siRNA 100 nmol
Description: Control siRNA (50-[…] (dTdT) 30) and glyceraldehyde-3 phosphate dehydrogenase (GAPDH) siRNA (50-[…] (dTdT)-30) were also purchased from Bioneer, Daejeon, Korea. The transfection was performed using Lipofectamine 2000 (Invitrogen, Karlsruhe, Germany). Two rounds of transfection with an interval of 24 h between were performed. 48 h after the first transfection the cells were serum-starved for 24 h and then subjected to further treatment.
MDA-MB-231 cells were serum-starved for 24 hours and then subjected to further treatment. SiRNAs v6-1 and v6-2 transfected and kept it for different time interval to achieve the CD44v6 expression inhibition.

CD44v6 = conditions: biotinylated peptide + avidin bead + cell lysate
Description: (§6) Biotinylated CD44v6 peptides was incubated with monomer avidin magnetic beads (Bioclone Inc.) for 30-60 min at room temperature with gentle rotation to be used for peptide pulldown, prior to incubation with cell lysates. Cells were lysed using cell lysis reagent (Thermo scientific) with protease inhibitors. After the first incubation of biotinylated peptide+avidin bead (complex 1) were washed with PBS and complex is incubated with cell lysate for 30-60 min at room temperature with gentle rotation. Bound biotinylated peptide+avidin bead+cell lysate (complex 2) were eluted by 1× blocking buffer/elution buffer for 5-10 min incubation after elution and the elute was subjected to western blot analysis using CD44v6 antibody (Millipore) to pull down the specific protein.
(§7) Biotinylated peptide+avidin bead+cell lysate (complex 2) were eluted for western blot analysis using CD44v6 antibody to pull down the specific protein.

wild-type CD44 = wild-type CD44 (Homo sapiens, UniProt P16070); conditions: biotinylated peptide + avidin bead + cell lysate
Chain of wild-type CD44 (P16070 21-361 isoform P16070-12 limits assumed): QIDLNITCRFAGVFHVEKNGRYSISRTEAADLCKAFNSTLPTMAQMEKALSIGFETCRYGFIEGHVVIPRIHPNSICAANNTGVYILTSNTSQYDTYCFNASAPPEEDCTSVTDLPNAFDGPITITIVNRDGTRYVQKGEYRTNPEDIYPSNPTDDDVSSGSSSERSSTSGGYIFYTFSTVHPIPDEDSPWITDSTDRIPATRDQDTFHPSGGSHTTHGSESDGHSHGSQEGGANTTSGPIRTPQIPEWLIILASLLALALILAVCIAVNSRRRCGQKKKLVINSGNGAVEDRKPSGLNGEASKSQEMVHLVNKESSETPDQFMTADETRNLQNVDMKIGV
Description: as §6, §7

MDA-MB-231 cells = conditions: MDA-MB-231, dose-dependent
[3] = test system: c-Met and Erk phosphorylation in MDA-MB-231 cells; conditions: MDA-MB-231, HGF 25-50 ng/mL; peptides 5 ug/ml each, combination 10 μg/ml
Description: Serum-starved cells (24 hours) were induced with the growth factor HGF (25-50 ng/mL), at 37° C. for 10 min. Where indicated, the cells were treated with a CD44v6 specific peptide or a control peptide (50 μg/ml) at 37° C. for 10 min before induction and cells were washed with ice-cold phosphate-buffered saline (PBS). To detect activated Erk and activated c-Met, cells were lysed in boiling sodium dodecyl sulfate (SDS) sample buffer containing 100 mM dithiothreitol (DTT) and subjected to Western blot analysis using antibodies against phosphorylated Erk and phosphorylated c-Met. The loading control was performed on the same blot, stripped (62.5 mM Tris, pH 6.8, 2% SDS, 0.8% DTT), and probed with the Erk and c-Met antibodies. Blots were stained using the enhanced chemiluminescence system (Thermo Fisher Scientific). Bands in Western blot analysis were quantified with the program ImageJ (National Institutes of Health).
In the present invention, MDA-MB-231 and 4T1 cells were serum-starved (24 hours) and were induced with the growth factor HGF (25-50 ng/mL) at 37° C. for 10 min. The cells were treated with a CD44v6 specific peptide or a control peptide (100 ng/ml) at 37° C. for 10 min before induction. To detect activated Erk and activated c-Met, cells were lysed and subjected to Western blot analysis using antibodies against phosphorylated Erk and phosphorylated c-Met. […]

MDA-MB-231 xenograft = conditions: anti-CD44v6 antibody staining
Description: Tumor tissues were further fixed with 4% paraformaldehyde overnight and rapidly frozen. Tissue slices (8-μm thick) were prepared using a cryo-microtome and stained with CD44v6 antibody (Santa Cruz), followed by Alexa 594-labeled goat anti-mouse IgG secondary antibody.

4T1 orthotopic mice = conditions: anti-CD44v6 antibody staining
Description: To analyze ex vivo organ distribution, animals were euthanized at 6 h post-injection with CO2. All major organs (liver, kidney, spleen, heart, and lung) along with tumor tissues were isolated and washed in PBS and ex vivo fluorescence images were taken using the IVIS Lumina III imaging system. Fluorescence intensity within the region of interest (ROI) of each organs was analyzed. Tumor tissues were further fixed with 4% paraformaldehyde overnight and rapidly frozen. Tissue slices (8-μm thick) were prepared using a cryo-microtome and stained with CD44v6 antibody (Santa Cruz), followed by Alexa 594-labeled goat anti-mouse IgG secondary antibody. […]
In vivo fluorescence images were taken before or after injection at various time points (1, 2, 4 and 6 h, respectively) with flamma 675 was injected at the same concentration and method. […]
Ex vivo fluorescence images of excised tumor and organs collected at 6 h post-injection. All major organs (liver, kidney, spleen, heart, and lung) along with tumor tissues were isolated and washed in PBS and ex vivo fluorescence images were taken (n=3) with FPR-675 fluorophore excitation at 675 nm and emission at 698 nm. Fluorescence intensity within the region of interest (ROI) of each organ was analyzed.

c-Met = conditions: biotinylated peptide + avidin bead + cell lysate

Chain of CD44v6 (P16070 386-428 limits assumed): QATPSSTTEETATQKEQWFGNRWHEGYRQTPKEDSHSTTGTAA

C[C@@H](Oc1cc(-c2cnn(C3CCNCC3)c2)cnc1N)c1c(Cl)ccc(F)c1Cl [crizotinib, reference compound]
metastasis (bioluminescence imaging) (MDA-MB-231 tumor model): inhibited metastatic growth
tumor growth (tumor volume) (4T1 tumor model; 4T1 bearing mice): Slight reduction of tumor volume
tumor and metastatic growth (bioluminescence imaging) (4T1 tumor model): slightly inhibited tumor and metastatic growth

CNEWQLKSC [v6Pep-2]
binding to MDA-MB-231, 4T1 and PANC-1 [1]: bind specifically
binding to MCF-7 (MCF-7): did not show specific binding
binding of FITC labelled peptide after silencing of CD44v6 gene (flow cytometry) [2]: binding got inhibited
binding of FITC labelled peptide after siRNA treatment (immunofluorescence staining) [2]: negligible binding
pull down of CD44v6 (CD44v6): pulled down
pull down of wild-type CD44 (wild-type CD44): not pulled down
metastasis (bioluminescence imaging) (MDA-MB-231 tumor model): inhibited metastatic growth
tumor and metastatic growth (bioluminescence imaging) (4T1 tumor model): slightly inhibited tumor and metastatic growth
binding of FITC labelled peptide after pre-treatment with anti-CD44v6 blocking antibody (MDA-MB-231 cells): significantly reduced the binding
binding of FITC labelled peptide after pre-treatment with anti-CD44v6 blocking antibody (MCF-7 cells): minimal effect
phosphorylation of c-Met and its downstream target Erk [3]: drastically reduced the phosphorylation
immunohistochemical examination of tumor tissues (MDA-MB-231 xenograft): co-localized with CD44v6
immunohistochemical examination of tumor tissues (4T1 orthotopic mice): co-localized with CD44v6

CNLNTIDTC [v6Pep-1]
binding to MDA-MB-231, 4T1 and PANC-1 [1]: bind specifically
binding to MCF-7 (MCF-7): did not show specific binding
binding of FITC labelled peptide after silencing of CD44v6 gene (flow cytometry) [2]: binding got inhibited
binding of FITC labelled peptide after siRNA treatment (immunofluorescence staining) [2]: negligible binding
pull down of CD44v6 (CD44v6): pulled down
pull down of wild-type CD44 (wild-type CD44): not pulled down
metastasis (bioluminescence imaging) (MDA-MB-231 tumor model): inhibited metastatic growth
tumor and metastatic growth (bioluminescence imaging) (4T1 tumor model): slightly inhibited tumor and metastatic growth
binding of FITC labelled peptide after pre-treatment with anti-CD44v6 blocking antibody (MDA-MB-231 cells): significantly reduced the binding
binding of FITC labelled peptide after pre-treatment with anti-CD44v6 blocking antibody (MCF-7 cells): minimal effect
phosphorylation of c-Met and its downstream target Erk [3]: drastically reduced the phosphorylation
pull down of c-Met (c-Met): pulled down
immunohistochemical examination of tumor tissues (MDA-MB-231 xenograft): co-localized with CD44v6
immunohistochemical examination of tumor tissues (4T1 orthotopic mice): co-localized with CD44v6
